Results on one molecule are retold here after patent US10864154B2, “Skin care compositions and their applications” (SAMI LABS LIMITED, priority 2019, dated 2020).

One test concerns the target T1, Mushroom Tyrosinase (Agaricus bisporus, UniProt C7FF04).
T1 construct: purchased Sigma
In words: Tyrosinase inhibition assay (L-Tyrosine substrate, absorbance at 492 nm). The note with it: EAA alone. The test is classed as biochemical. On the procedure:
Tyrosinase acts on L-Tyrosine forming a pink colored complex, the intensity of which is measured at 492 nm. The Tyrosinase activity in the presence and absence of inhibitor is assayed spectrophotometrically at 492 nm using a Microplate reader.
Mushroom Tyrosinase enzyme is prepared by dissolving entire content in […], pH 6.5 pre-chilled enzyme buffer to get […]. Gentle shaking for five minutes aids in dissolution of enzyme. Aliquot the stock into vials of 100 μl each and keep at −80° until use for at least 2 months. Multiple freeze-thaw cycles of the enzyme must be avoided.
A stock of 2.50 mM L-Tyrosine Disodium salt (Sigma) is prepared in 1.5 mM phosphate buffer (pH 6.5) by dissolving 2.845 mg/5 ml.
Samples were dissolved in DMSO and further dilutions were carried out in buffer
The assay was performed in a 96 well clear microtitre plate. Different concentrations of the composition comprising ethyl-ascorbic acid and tetrahydrocurcuminoids were pre incubated with 10 μl of […] stock Solution of Mushroom Tyrosinase (f.c. 6 U/well) at 37° C. for 10 minutes. The reaction is initiated by adding 2.5 mM L-Tyrosine disodium and the absorbance is read immediately every minute until 15 minutes using the microplate reader at 492 nm. A test blank well was prepared for each sample without the enzyme. Enzyme reaction with vehicle alone served as a control for enzyme activity. Kojic acid was used as a positive control.
The results are expressed as IC50 values using Graphpad prism software. The percentage of inhibition of melanin is calculated as follows,
Where C-absorbance in control and T-absorbance in test sample

Test [1] concerns B16F1 mouse melanoma cells. In words: Melanogenesis inhibition in α-MSH stimulated B16F1 cells (melanin at 405 nm). The note with it: EAA alone, 72 hours. The test is classed as cell-based. On the procedure:
The intracellular melanin in B16F1 mouse melanoma cells is extracted by 1N NaOH. The brown colored melanin thus extracted is estimated at 405 nm. The synthesis of melanin is inhibited in the presence of inhibitor which results in reduced absorbance at 405 nm.
MSH Stock was prepared at 1 mg/ml in distilled water. MSH at a final concentration of 1 nM was used to stimulate melanogenesis
B16F1 mouse melanoma cells were cultured for 24 hours in a 96 well microtiter plate at a seeding density of 5000 cells per well. Cells are treated with varying non cytotoxic concentrations of the sample over a period of 72 hours along with melanin stimulating hormone (∝-MSH) to induce the synthesis of melanin pigment. Untreated cells and cells without ∝-MSH addition were used as positive and negative control. The melanin produced by the cells was extracted by 1N NaOH and the absorbance was read at 405 nm in a Microplate reader. The inhibitory effect of the sample is calculated based on the degree of inhibition of melanin formation.
The results are expressed as IC50 values using Graph pad prism software. The percentage of inhibition of melanin is calculated as follows,
[formula] Where C-absorbance due to melanin in untreated cells
T-absorbance due to melanin in sample treated cells

T1 sequence (C7FF04 1-392 limits assumed): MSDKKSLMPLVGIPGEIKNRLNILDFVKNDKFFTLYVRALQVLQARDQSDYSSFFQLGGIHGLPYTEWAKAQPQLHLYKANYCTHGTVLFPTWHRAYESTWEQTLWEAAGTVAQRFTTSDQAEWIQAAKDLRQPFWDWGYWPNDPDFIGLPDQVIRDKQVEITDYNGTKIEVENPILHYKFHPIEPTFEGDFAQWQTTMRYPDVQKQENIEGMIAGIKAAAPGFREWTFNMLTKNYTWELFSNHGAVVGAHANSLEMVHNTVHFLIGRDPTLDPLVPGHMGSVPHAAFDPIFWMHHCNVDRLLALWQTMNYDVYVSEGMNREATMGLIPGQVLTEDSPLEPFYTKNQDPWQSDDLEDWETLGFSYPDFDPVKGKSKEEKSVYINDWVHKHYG

Regarding `CCOC1=C(O)C(=O)O[C@@H]1[C@@H](O)CO` [Ethyl-ascorbic acid (EAA), 3-O-ethyl-ascorbic acid], the “% Inhibition of tyrosinase activity” value on Mushroom Tyrosinase (62.5 μg/ml) and on Mushroom Tyrosinase (125 μg/ml) was “Nil” each time. The inhibition (commonly the drop in the measured response relative to a control, in per cent) at 250 µg/mL against Mushroom Tyrosinase (250 μg/ml) is 11.6%. The molecule further returned an inhibition at 500 µg/mL against Mushroom Tyrosinase (500 μg/ml) of 28.3%. Besides, the “% Inhibition of melanogenesis” value was “Nil” in test [1] (0.625 μg/ml); “did not show any melanogenesis inhibition” in test [1] (0.625 μg/ml, listed as ethyl-ascorbic acid); “Nil” in test [1] (1.25 μg/ml).
